Measurements from publication PMC12621189, “Optimization of Selective and CNS Penetrant Alkyne-Based TREK Inhibitors: The Discovery and Characterization of ONO-9517601 (VU6022856) and ONO-7927846 (VU6024391)” (Journal of Medicinal Chemistry, 2025).

How the values were obtained:
[1] = Plasma protein binding, mouse; assay type: in vitro ADME; details: bound; for fraction unbound at 6 h, 5 µM: mouse, plasma, pH 7.4, mouse plasma, read-out: PPB mouse (converted)
Method: Plasma protein binding and Brain homogenate binding: Determination of fraction unbound (f u) in plasma was conducted in vitro via equilibrium dialysis using HTDialysis (HTD) membrane plates. The top half of the plate was filled with 100 uL of Dubelco’s Phosphate Buffered Saline, pH 7.4 (DPBS). Compounds were diluted into plasma from each species (5 µM final concentration), which was aliquoted in triplicate to the ‘bottom half’ of the prepared HTD plate wells. The HTD plate was sealed and incubated for 6 hours at 37 °C. Following incubation, each well (both top and bottom halves) were transferred (20 µL) to the corresponding wells of a 96-shallow-well (V-bottom) plate. The daughter plates were then matrix-matched (DPBS side wells received equal volume of plasma, and plasma side wells received equal volume of DPBS), and extraction solution (120 µL; acetonitrile containing 50 nM carbamazepine as IS) was added to all wells of both daughter plates to precipitate protein and extract test article. The plates were then sealed and centrifuged (3500 rcf) for 10 minutes at ambient temperature. Supernatant (60 µL) from each well of the daughter plates was then transferred to the corresponding wells of new daughter plates (96-shallow-well, V bottom) containing water (Milli-Q, 60 µL/well), and the plates were sealed in preparation for LC-MS/MS analysis (see LC-MS/MS analysis method below).
The unbound fraction (f u) was calculated following the equation below, and mean values for each species were calculated from 3 replicates. […]
Fraction unbound for both plasma and brain samples was determined using Equation 4.
Equation 4 Determination of fraction unbound in plasma. […]

[2] = molecular target: CYP 2C9 (Homo sapiens, UniProt P11712); assay: CYP450 inhibition 2C9; assay type: in vitro ADME
CYP 2C9, sequence (P11712 whole entry): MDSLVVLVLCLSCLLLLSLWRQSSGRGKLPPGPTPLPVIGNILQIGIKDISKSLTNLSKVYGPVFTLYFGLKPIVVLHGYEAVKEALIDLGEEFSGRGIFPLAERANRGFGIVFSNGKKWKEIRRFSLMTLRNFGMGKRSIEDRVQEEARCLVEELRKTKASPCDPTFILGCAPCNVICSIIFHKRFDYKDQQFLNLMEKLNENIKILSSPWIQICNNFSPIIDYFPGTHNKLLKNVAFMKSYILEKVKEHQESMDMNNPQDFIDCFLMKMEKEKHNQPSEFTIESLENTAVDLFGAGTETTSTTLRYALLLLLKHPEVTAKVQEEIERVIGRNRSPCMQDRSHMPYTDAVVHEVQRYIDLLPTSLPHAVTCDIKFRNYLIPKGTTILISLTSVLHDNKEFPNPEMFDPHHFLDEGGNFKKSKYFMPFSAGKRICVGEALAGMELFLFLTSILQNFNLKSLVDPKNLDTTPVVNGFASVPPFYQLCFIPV

[3] = CACO-2 efflux ratio; assay type: in vitro ADME; details: human, pH 7.4, efflux ratio, read-out: CACO-2 (ER)
[4] = IV/PO pharmacokinetic study, rat (SD); assay type: in vivo; details: for clearance / Vd / half-life / Cmax: Sprague-Dawley, plasma; for clearance / Vd / half-life: iv 1 mg/kg; for clearance: read-out: CLp; for Vd: read-out: Vss; for half-life: read-out: elimination t1/2 (converted); for Cmax / F (%) po: po 1 mg/kg
[5] = molecular target: T1, adenosine A3 (Homo sapiens, UniProt P0DMS8); assay: Radioligand binding, adenosine A3; details: for IC50: follow-up binding; for inhibition at 10 µM: radioligand binding displacement
T1 construct: purchased Eurofins
T1 sequence (P0DMS8 1-318): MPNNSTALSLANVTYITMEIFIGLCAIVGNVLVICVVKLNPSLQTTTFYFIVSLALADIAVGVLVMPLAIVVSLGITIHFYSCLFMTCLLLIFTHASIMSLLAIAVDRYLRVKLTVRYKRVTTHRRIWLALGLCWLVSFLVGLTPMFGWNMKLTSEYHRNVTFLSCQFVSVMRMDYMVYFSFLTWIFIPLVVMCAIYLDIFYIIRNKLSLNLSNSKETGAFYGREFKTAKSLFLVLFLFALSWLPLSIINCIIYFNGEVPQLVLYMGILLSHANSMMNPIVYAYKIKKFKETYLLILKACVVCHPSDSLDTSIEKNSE

[6] = molecular target: Kir2.2 (Homo sapiens, UniProt Q14500); assay: MPC ion channel panel, Kir2.2; assay type: cell-based
Kir2.2, sequence (Q14500 whole entry): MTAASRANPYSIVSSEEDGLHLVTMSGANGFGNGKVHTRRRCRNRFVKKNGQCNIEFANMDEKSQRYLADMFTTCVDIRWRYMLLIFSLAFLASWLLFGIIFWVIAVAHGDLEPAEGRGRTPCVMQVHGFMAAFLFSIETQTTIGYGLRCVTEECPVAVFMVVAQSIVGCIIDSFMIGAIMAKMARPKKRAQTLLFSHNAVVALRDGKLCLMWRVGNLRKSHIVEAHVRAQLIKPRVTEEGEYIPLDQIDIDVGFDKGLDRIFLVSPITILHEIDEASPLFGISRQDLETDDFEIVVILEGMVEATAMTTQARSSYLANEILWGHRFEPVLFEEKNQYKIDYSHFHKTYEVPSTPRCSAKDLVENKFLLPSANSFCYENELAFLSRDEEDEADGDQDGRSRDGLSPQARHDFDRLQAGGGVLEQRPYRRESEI

[7] = molecular target: THIK-1 (Homo sapiens, UniProt Q9HB14); assay: K2P family selectivity, THIK-1; assay type: cell-based
THIK-1, sequence (Q9HB14 whole entry, species assumed): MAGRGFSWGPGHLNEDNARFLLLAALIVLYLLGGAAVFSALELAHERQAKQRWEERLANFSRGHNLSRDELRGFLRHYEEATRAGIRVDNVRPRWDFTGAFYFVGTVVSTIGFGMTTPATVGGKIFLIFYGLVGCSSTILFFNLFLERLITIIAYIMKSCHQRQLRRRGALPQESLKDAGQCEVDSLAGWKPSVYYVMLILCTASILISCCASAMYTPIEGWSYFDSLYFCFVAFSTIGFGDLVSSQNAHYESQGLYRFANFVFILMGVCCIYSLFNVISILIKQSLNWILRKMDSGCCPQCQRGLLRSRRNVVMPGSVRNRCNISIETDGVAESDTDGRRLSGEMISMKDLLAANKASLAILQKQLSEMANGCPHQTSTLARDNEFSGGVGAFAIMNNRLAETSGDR

[8] = molecular target: TRESK (Homo sapiens, UniProt Q7Z418); assay: K2P family selectivity, TRESK; assay type: cell-based
TRESK, sequence (Q7Z418 whole entry, species assumed): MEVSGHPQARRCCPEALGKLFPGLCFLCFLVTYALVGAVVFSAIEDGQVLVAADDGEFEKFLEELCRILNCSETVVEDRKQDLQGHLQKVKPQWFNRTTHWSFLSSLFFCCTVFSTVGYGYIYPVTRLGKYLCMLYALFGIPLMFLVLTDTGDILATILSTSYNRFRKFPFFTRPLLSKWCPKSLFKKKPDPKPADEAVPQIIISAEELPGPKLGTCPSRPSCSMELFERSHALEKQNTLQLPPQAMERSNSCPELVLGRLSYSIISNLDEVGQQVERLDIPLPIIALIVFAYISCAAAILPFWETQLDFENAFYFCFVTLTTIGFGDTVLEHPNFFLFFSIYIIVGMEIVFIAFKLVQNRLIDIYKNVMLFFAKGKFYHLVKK

[9] = tested on: MK-801 challenged rat; assay: MK-801 challenge novel object recognition (NOR), rat; assay type: in vivo; details: for Minimum effective dose (MED), MK-801 challenge NOR: PO, MK-801 0.2 mg/kg IP; for reversal of the MK-801 deficit in NOR: oral, 10 at 1, 3 mg/kg, 11 at 0.3, 1 mg/kg
[10] = tested on: MK-801 challenged mouse; assay: MK-801 challenge novel object recognition (NOR), mouse; assay type: in vivo; details: dosed orally, data not shown
Method: Brain plasma concentration ratio (Kp) was calculated by dividing brain concentration by plasma concentration for each animal. Unbound brain to unbound plasma concentration ratio (Kp,uu) is calculated using the following formula: Kp,uu = (Brain ng/g x brain fu)/(plasma ng/ml x plasma fu).
In-vitro determination of blood-brain barrier penetration potential
Blood-brain barrier penetration was determined using MDR1-MDCK cell monolayers by Absorption Systems, following their protocol. In short, compounds were incubated at […] final concentration on one side of the cell monolayer for 2 hours. Compounds concentration on either side of the monolayer was determined by LC-MS/MS and apparent permeability and efflux ratio were determined as described in Wang, Q. et al.1
MK-801 induced novel object recognition test […]
Behavioral analysis: An observer blinds to treatment condition and novel object location used the video recordings to score the interaction of the animal with the two objects offline. The duration an animal explored each object was determined as the total time an animal is facing the object with its nose being ≦ 2 cm away from the object and some discernible whisker movement […]
Data Analysis: Statistical analyses can be performed using EXSUS ver 8.1 (CAC Croit Corporation). The vehicle and compound-treated groups were analyzed by one-way ANOVA followed by Dunnett's test. […]

PPB mouse ([1]; mouse plasma) [%]	SMILES	fraction unbound at 6 h, 5 µM [1]	IC50 [2] [nM]	efflux ratio [3]	clearance [4] [mL/min/kg]	Vd [4] [L/kg]	half-life [4] [h]	Cmax [4] [ng/mL]	F (%) po [4] [%]	IC50 [5] [nM]	inhibition at 10 µM [5] [%]	inhibition at 10 µM [6] [%]	THIK-1 inhibition [7]	TRESK inhibition [8]	Minimum effective dose (MED), MK-801 challenge NOR [9] [mg/kg]	reversal of the MK-801 deficit in NOR [9]	MED in the NOR cognition assay, MK-801 challenged mouse [10] [mg/kg]
–	CC(=O)N1CCC(n2ncc(Cl)c2C(=O)Nc2ncc(C#Cc3ccccc3)cc2C)CC1 [Compound 10, 1-(1-Acetylpiperidin-4-yl)-4-chloro-N-(3-methyl-5-(phenylethynyl)pyridin-2-yl)-1H-pyrazole-5-carboxamide]	0.018	6100	0.7	30	2.2	1	80	40	380	98	51	nothing significant	nothing significant	1	significantly reversed the MK-801 deficit	1
–	CC(=O)N1CC[C@@H](n2ncc(Cl)c2C(=O)Nc2ncc(C#Cc3ccc(F)cc3)cc2C)[C@H](F)C1 [Compound 11, 1-((3R,4R)-1-Acetyl-3-fluoropiperidin-4-yl)-4-chloro-N-(5-((4-fluorophenyl)ethynyl)-3-methylpyridin-2-yl)-1H-pyrazole-5-carboxamide]	–	4900	0.91	6.1	2.7	5.5	162	57	770	91	≤ 50	–	–	0.3	significantly reversed the MK-801 deficit	3
98.0	Cc1cc(C#Cc2ccccc2)cnc1NC(=O)c1c(Cl)cnn1[C@H]1CCOC1 [Compound 15a, (S)-4-Chloro-N-(3-methyl-5-(phenylethynyl)pyridin-2-yl)-1-(tetrahydrofuran-3-yl)-1H-pyrazole-5-carboxamide]	~0.02	–	–	–	–	–	–	–	–	–	–	–	–	–	–	–
